The values that follow come from patent publication US20240115662A1, “METHODS OF TREATING HYPOGONADOTROPIC HYPOGONADISM AND COGNITION IMPAIRMENT FOLLOWING A TRAUMATIC BRAIN INJURY” (WISCONSIN ALUMNI RESEARCH FOUNDATION, priority 2021, published 2024).

Experiment [1] deals with male Sprague Dawley rats with craniectomy or controlled cortical impact (CCI) injury. In words: Plasma steroid concentrations after craniectomy (Sham) or CCI injury, hCG with or without RU-486. In kind it is in vivo, rat. The procedure:
Male Sprague Dawley (SD) rats (n=58, 5-6-months old) were acquired from Harlan Laboratories Inc. (Madison, WI) and acclimated to the environment over 2 days. Rats were then weighed and handled for no less than 5 min each for 5 consecutive days and daily thereafter while being housed, fed and maintained on a 12-hour reverse light/dark cycle. The Institutional Animal Care and Use Committee (Animal Component of Research Protocol) at the William S. Middleton Veterans Administration Hospital approved the procedures used in this study and the research was conducted in an AAALAC-approved facility. Experimenters were blinded as to the identity of the animals throughout injections, blood collections, and body weight and hormone data analyses.
All surgical procedures were carried out under isoflurane gas anesthesia (5% for induction; 1.5-3.0% for maintenance, craniectomy ˜15-30 min duration; craniectomy+CCI injury ˜25-45 min duration). An anesthesia chamber was used for induction and a nose cone was used for maintenance.
Anesthetized rats were mounted in a Kopf stereotaxic device (Model 900; Tujunga, CA), where the animal's head was held in place by non-traumatic ear bars and a bite bar. Anesthesia was maintained by nose cone while the head was shaved and sterilized with 70% ethanol and Betadine™ (Purdue Products L.P., Stamford, CT) antiseptic solution. Throughout surgery anesthesia levels were monitored closely and were frequently adjusted as need, based on heart rate, respiration rate and oxygen saturation. A homeothermic blanket control unit (Harvard Apparatus, Holliston, MA) was used to monitor body temperature and to prevent hypothermia throughout surgery.
Under aseptic conditions, the cranium and its bony landmarks including bregma (β) and lambda (λ) were exposed by making a midline incision along the scalp into the skin and fascia covering the skull. A 6 mm diameter craniectomy was centered on the midline at 2.5 mm anterior to β. The cortical impact was made at 2.5 mm anterior to β over the midline of the medial frontal cortex with an Impact One™ Stereotaxic CCI instrument (Leica, Buffalo Grove, IL), using a 5 mm impactor (bit size), traveling at 2.25 m/s (velocity), extending 3 mm below the cortical surface (impact depth) for 100 ms (dwell time). Sham-injured groups received the same surgical procedures up to and including craniectomy but no CCI injury. After surgery, the rats were placed on a heating pad, monitored closely and upon awakening were tested 30 min later for righting reflex to assess any immediate effects of craniectomy or CCI injury on righting ability, and then returned to their home cages.
Baseline blood draws were collected from all animals. […] Pregnyl® is a highly purified pyrogen-free preparation obtained from the urine of pregnant females. Each vial contains 10,000 USP units of sterile dried powder with 5 mg monobasic sodium phosphate and 4.4 mg dibasic sodium phosphate that is diluted in solvent containing water, 0.56% sodium chloride and 0.9% benzyl alcohol (www.drugs.com/pro/pregnyl.html).
Rats were anesthetized (between 9:00 a.m.-12:00 noon) and their tails placed in a 200 mL beaker filled with warm water (≤44° C.) for 5 min. The tail was clean with 70% alcohol, the minimal amount of the tail tip snipped with a blade, and/or the wound reopened by removal of the scab for subsequent bleeds, and ˜1 mL of whole blood was collected directly into EDTA tubes at baseline (PID-10) and at PID, 1, 11, 19 and 29. […] Animals were injected with Lactate Ringers solution (5 mL) for fluid resuscitation. At the terminal bleed (day 29), blood also was collected via heart puncture. Collected blood was immediately centrifuged at 4,000 g for 10-20 min and the plasma aliquoted into Eppendorf tubes for storage at −80° C.

Another experiment relates to hESC. Description: hESC differentiation into neuroectoderm / neural precursor cells (nestin immunoblot, rosettes). Type of experiment: cell-based, human. The procedure: FIG. 5A. hESC were grown in TESR1 media-Li in the presence of E2 (10 nM), P4 (2 μM) or E2 (10 nM)+P4 (2 μM) for 6 d and cell proliferation measured using the trypan blue assay. Results are expressed as mean±SEM, n=3 (*p<0.05, **p<0.005 compared to 6 d control). FIG. 5B. Equal amounts of protein from cell lysates of hESC treated for 9 d as described above were analyzed by immunoblot using a monoclonal antibody against nestin (clone 10C2; Chemicon, CA, USA). FIG. 5C. hESC were cultured for 4 days, enzymatically lifted and placed into EB media (containing serum) and rocked gently for an additional 4 days prior to being placed in one of two neural induction medias for an additional 11 days, where P4 was either absence or present. During this transition from EB to rosettes, colony structures treated with P4 also were treated with a Progesterone Receptor (PR) antagonist (RU-486; 20 μM) for 11 days. At 19 day, morphological observation and molecular analysis were performed. (i) Control structure, a minimum of three rosette structures were observed inside the cystic cavity (arrows). (ii) hESC structure in the absence of P4 (no rosettes) (iii) PR antagonist treated rosettes (no rosettes; RU-486, 20 μM). FIG. 5D. Equal amounts of protein from cell lysates of above structures were analyzed by immunoblot for nestin.
These structures are predominantly composed of NPCs (NSCs) akin to those that form the neural tube and can be further differentiated into various neural lineages. To understand which hormonal signals regulate the specification of hESC into NSCs, we closely examined the composition of the medias and supplements that had been developed by trial and error for the maintenance of hESC, and their differentiation first into embryoid bodies (EBs) and then into NPC. We identified P4 in the B27 supplement as being necessary and sufficient for the survival and differentiation of late embryonic neurons in vitro (E18 primary hippocampal/cortical/striatal neurons). […]

The subject of experiment [2] is human embryonic stem cells (hESC). Description: hESC proliferation, trypan blue assay. As to conditions: 6 d; E2 (10 nM), P4 (2 μM); compared to untreated control cells. Type of experiment: cell-based.
Protocol: We therefore tested whether P4 was essential for the induction of NPC from hESC. hESC were treated with P4, E2 (which upregulates P4 receptor (PR) expression), or a combination of E2+P4.

“11β-[p-(Dimethylamino)phenyl]-17α-(1-propynyl)estra-4,9-dien-17β-ol-3-one [RU-486]”: the “plasma P4 concentration” value in experiment [1] (CCI injured animals with RU-486 pretreatment, PID 1) is 40.9 ± 10.0 ng/mL; in experiment [1] (Sham+hCG with RU486 pretreatment, PID 29) it was 8.5 ± 4.5 ng/mL. The “plasma T concentration” value in experiment [1] (CCI injured animals with RU-486 pretreatment, PID 11) came to 4.5 ± 1.5 ng/mL; in experiment [1] (CCI injured animals with RU-486 pretreatment, PID 19) it was 3.1 ± 1.1 ng/mL. Besides, the “effect on circulating 11-DOC and corticosterone” value in experiment [1] (CCI injured animals, RU486 pretreatment) was “no significant effects”. The effect on corticosterone entry in experiment [1] (Sham surgery, saline and hCG-treated animals, RU486 pretreatment (except PID 19 in Sham+hCG)) was “prevented Sham surgery-induced decreases in corticosterone through PID 29”. In addition, the “circulating 11-DOC” value in experiment [1] (Sham+hCG rats with RU486 pretreatment (40 mg/kg i.p.), PID 1) was found to be 282.4 ± 28.0 ng/mL. In addition, in experiment [1] (Sham+saline with RU486 pretreatment), the “effect on 11-DOC” value is “preventing the Sham+saline treatment-induced decrease in 11-DOC through PID29”. Also, the “nestin (immunoblot) in PR-antagonist treated structures” value in the experiment with hESC (RU-486 20 μM) is “absence of nestin”. The neuroectodermal rosette formation entry in the experiment with hESC (RU-486 20 μM for 11 days, in presence of P4) was “No rosettes were detected”.

Regarding `C[C@]12CC[C@@H]3c4ccc(O)cc4CC[C@H]3[C@@H]1CC[C@@H]2O` [E2, estradiol], the “decrease in rate of hESC proliferation” value in experiment [2] turned out to be 16%.

Regarding `CC(=O)[C@H]1CC[C@H]2[C@@H]3CCC4=CC(=O)CC[C@]4(C)[C@H]3CC[C@]12C` [P4, progesterone], in experiment [2], the “decrease in rate of hESC proliferation” value worked out at 29%. Moreover, the “nestin expression (immunoblot)” value in the experiment with hESC (hESC treated for 9 d, E2 (10 nM), P4 (2 μM)) is recorded as “increased the neuroectodermal marker nestin”.
